Values of other authors in article PMC4287963 (Inorganic chemistry, 2009).

Settings: Cu(II) complex of TETA; cited from earlier work

For O=C(O)CN1CCCN(CC(=O)O)CCN(CC(=O)O)CCCN(CC(=O)O)CC1 [TETA], the “thermodynamic formation constant log K” value is listed as 21.9.
